Activity calls are given as the source filed them. The rule behind the calls is not given here.

Assay [1] concerns the target Ribosomal protein S6 kinase alpha-1 (Homo sapiens) (UniProt Q15418). As to the kind of experiment: Inhibition of T7 bacteriophage fused human C-terminal RSK1 Kinase domain-2 at 10 uM by KINOMEscan analysis relative to control.
For assay [2], the target named is Ribosomal protein S6 kinase alpha-5 (Homo sapiens) (UniProt O75582). As to the kind of experiment: Inhibition of T7 bacteriophage fused human C-terminal RPS6KA5 Kinase domain-2 at 10 uM by KINOMEscan analysis relative to control.
The target of assay [3] is Leucine-rich repeat serine/threonine-protein kinase 2 (Homo sapiens) (UniProt Q5S007). As to the kind of experiment: Inhibition of T7 bacteriophage fused human LRRK2 at 10 uM by KINOMEscan analysis relative to control; values are per cent of control.
Leucine-rich repeat serine/threonine-protein kinase 2 (Homo sapiens), sequence (Q5S007 whole entry, the tested form may be a part): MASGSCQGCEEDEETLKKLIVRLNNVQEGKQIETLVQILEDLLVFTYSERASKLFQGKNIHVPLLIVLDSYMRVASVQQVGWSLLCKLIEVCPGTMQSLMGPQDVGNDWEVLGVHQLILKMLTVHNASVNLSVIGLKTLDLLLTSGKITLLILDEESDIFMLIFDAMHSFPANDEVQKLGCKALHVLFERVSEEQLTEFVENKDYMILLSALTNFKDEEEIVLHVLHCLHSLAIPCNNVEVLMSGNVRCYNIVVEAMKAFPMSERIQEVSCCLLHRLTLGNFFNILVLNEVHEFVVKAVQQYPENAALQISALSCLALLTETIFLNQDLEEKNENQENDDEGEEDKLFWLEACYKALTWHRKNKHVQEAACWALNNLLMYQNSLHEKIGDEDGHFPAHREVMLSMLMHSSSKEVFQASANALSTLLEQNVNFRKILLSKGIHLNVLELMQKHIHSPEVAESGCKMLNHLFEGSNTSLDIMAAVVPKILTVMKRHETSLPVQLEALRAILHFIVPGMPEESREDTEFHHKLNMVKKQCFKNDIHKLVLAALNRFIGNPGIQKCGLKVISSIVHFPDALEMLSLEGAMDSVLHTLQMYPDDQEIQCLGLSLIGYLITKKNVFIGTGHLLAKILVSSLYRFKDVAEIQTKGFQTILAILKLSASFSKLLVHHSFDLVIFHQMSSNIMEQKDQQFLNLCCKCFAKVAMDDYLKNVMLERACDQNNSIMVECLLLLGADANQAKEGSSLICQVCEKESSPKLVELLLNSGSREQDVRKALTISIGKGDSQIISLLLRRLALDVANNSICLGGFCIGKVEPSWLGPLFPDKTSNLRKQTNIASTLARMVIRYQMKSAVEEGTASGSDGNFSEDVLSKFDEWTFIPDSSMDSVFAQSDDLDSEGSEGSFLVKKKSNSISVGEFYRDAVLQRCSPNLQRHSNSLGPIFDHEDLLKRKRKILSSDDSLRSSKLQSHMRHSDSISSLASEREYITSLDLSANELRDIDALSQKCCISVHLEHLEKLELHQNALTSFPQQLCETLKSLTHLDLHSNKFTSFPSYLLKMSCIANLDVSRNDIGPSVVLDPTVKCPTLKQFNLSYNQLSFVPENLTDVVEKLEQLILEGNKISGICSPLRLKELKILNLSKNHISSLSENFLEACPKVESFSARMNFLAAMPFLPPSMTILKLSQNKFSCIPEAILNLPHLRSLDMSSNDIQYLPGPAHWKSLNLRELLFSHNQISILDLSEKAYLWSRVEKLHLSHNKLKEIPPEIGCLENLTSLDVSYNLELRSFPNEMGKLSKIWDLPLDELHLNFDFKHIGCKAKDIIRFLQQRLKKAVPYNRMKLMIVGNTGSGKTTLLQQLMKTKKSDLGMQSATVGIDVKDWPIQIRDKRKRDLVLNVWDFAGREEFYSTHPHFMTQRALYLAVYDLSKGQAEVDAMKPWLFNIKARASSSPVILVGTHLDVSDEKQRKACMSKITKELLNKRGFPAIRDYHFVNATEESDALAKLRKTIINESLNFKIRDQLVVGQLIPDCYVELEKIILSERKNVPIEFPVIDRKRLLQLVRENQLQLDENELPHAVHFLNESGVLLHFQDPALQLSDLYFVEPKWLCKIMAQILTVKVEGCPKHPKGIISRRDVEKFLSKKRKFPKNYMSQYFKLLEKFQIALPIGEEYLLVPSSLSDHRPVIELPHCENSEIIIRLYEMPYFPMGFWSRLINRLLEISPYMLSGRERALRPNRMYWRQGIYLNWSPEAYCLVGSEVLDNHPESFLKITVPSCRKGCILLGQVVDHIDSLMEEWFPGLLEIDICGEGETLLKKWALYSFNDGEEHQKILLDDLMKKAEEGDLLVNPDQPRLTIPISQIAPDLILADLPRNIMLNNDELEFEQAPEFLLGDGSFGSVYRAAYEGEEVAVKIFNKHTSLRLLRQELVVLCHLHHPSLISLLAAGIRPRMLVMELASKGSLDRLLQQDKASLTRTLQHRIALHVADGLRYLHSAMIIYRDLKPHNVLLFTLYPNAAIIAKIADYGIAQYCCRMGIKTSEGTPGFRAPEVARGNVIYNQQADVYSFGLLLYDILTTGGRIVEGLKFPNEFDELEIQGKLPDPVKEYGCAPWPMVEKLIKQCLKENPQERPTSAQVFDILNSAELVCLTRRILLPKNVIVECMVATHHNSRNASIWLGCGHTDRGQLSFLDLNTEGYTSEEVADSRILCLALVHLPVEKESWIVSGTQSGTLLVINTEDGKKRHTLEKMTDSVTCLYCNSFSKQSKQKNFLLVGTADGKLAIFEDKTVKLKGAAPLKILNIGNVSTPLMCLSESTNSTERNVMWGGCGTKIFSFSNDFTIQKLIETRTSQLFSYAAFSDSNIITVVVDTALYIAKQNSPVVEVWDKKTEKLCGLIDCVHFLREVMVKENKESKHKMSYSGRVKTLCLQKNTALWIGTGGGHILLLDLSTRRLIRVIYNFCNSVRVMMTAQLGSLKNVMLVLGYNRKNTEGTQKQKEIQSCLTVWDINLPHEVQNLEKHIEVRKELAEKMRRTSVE
The target in assay [4] is Cyclin-dependent kinase 5 (Homo sapiens) (UniProt Q00535). As to the kind of experiment: Inhibition of T7 bacteriophage fused human CDK5 at 10 uM by KINOMEscan analysis relative to control.
The target in assay [5] is Serine/threonine-protein kinase Nek2 (Homo sapiens) (UniProt P51955). As to the kind of experiment: Inhibition of T7 bacteriophage fused human NEK2 at 10 uM by KINOMEscan analysis relative to control.
Assay [6] has as its target Maternal embryonic leucine zipper kinase (Homo sapiens) (UniProt Q14680). Kind of assay: Inhibition of T7 bacteriophage fused human MELK at 10 uM by KINOMEscan analysis relative to control.
The target in assay [7] is Cyclin-dependent kinase 11B (Homo sapiens) (UniProt P21127). As to the kind of experiment: Inhibition of T7 bacteriophage fused human CDK11 at 10 uM by KINOMEscan analysis relative to control.
Assay [8] concerns the target Homeodomain-interacting protein kinase 1 (Homo sapiens) (UniProt Q86Z02). As to the kind of experiment: Inhibition of T7 bacteriophage fused human HIPK1 at 10 uM by KINOMEscan analysis relative to control.
The target in assay [9] is Serine/threonine-protein kinase ICK (Homo sapiens) (UniProt Q9UPZ9). Kind of assay: Inhibition of T7 bacteriophage fused human ICK at 10 uM by KINOMEscan analysis relative to control; values are per cent of control.
In assay [10] the test system is Receptor-type tyrosine-protein kinase FLT3 (Homo sapiens), P36888 [R834Q]. As to the kind of experiment: Inhibition of T7 bacteriophage fused human FLT3 R834Q mutant at 10 uM by KINOMEscan analysis relative to control.
The target of assay [11] is Bone morphogenetic protein receptor type-2 (Homo sapiens) (UniProt Q13873). Kind of assay: Inhibition of T7 bacteriophage fused human BMPR2 at 10 uM by KINOMEscan analysis relative to control.
Bone morphogenetic protein receptor type-2 (Homo sapiens), sequence (Q13873 whole entry, the tested form may be a part): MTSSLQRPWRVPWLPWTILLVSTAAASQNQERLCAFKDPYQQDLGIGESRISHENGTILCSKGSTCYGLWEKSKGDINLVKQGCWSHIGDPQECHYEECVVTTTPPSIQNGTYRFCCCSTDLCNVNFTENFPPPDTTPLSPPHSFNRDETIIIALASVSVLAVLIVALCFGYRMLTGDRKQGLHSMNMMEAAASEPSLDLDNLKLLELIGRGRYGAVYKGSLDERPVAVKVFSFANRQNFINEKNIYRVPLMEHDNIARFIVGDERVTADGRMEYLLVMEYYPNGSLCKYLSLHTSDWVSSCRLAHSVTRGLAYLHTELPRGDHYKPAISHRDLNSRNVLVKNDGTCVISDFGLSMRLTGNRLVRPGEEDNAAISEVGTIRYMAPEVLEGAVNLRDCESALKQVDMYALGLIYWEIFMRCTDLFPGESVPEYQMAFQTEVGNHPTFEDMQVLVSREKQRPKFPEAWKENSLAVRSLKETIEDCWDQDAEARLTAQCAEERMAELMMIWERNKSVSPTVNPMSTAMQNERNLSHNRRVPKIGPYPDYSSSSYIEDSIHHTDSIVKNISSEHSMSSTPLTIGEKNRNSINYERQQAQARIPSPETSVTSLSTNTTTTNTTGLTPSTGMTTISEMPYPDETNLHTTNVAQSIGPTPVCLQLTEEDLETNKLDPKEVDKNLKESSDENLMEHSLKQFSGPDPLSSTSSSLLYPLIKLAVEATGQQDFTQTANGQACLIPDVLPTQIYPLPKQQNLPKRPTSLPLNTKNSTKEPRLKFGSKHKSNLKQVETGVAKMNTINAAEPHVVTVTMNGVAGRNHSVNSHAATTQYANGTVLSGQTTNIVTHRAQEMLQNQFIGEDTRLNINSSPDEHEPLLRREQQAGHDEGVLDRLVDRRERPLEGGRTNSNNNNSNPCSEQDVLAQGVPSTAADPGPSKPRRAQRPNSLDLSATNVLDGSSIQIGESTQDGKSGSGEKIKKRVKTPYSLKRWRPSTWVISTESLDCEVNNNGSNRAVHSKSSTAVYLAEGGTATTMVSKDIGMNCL
For assay [12], the system named is Proto-oncogene tyrosine-protein kinase receptor Ret (Homo sapiens), P07949 [V804L]. Kind of assay: Inhibition of T7 bacteriophage fused human RET V804L mutant at 10 uM by KINOMEscan analysis relative to control.
Assay [13] addresses Cyclin-dependent kinase 15 (Homo sapiens) (UniProt Q96Q40). Kind of assay: Inhibition of T7 bacteriophage fused human PFTAIRE2 at 10 uM by KINOMEscan analysis relative to control.
Assay [14] has as its target Receptor-interacting serine/threonine-protein kinase 2 (Homo sapiens) (UniProt O43353). Kind of assay: Inhibition of T7 bacteriophage fused human RIPK2 at 10 uM by KINOMEscan analysis relative to control.
In assay [15] the target is Ephrin type-B receptor 2 (Homo sapiens) (UniProt P29323). Kind of assay: Inhibition of T7 bacteriophage fused human EPHB2 at 10 uM by KINOMEscan analysis relative to control.
Assay [16] deals with Insulin-like growth factor 1 receptor (Homo sapiens) (UniProt P08069). Kind of assay: Inhibition of T7 bacteriophage fused human IGF1R at 10 uM by KINOMEscan analysis relative to control; values are per cent of control.
Assay [17] concerns the target Mitogen-activated protein kinase 3 (Homo sapiens) (UniProt P27361). As to the kind of experiment: Inhibition of T7 bacteriophage fused human ERK1 at 10 uM by KINOMEscan analysis relative to control.
Assay [18] has as its target Death-associated protein kinase 2 (Homo sapiens) (UniProt Q9UIK4). Kind of assay: Inhibition of T7 bacteriophage fused human DAPK2 at 10 uM by KINOMEscan analysis relative to control; values are per cent of control.
Assay [19] has as its target Protein kinase C theta type (Homo sapiens) (UniProt Q04759). Kind of assay: Inhibition of T7 bacteriophage fused human PRKCQ at 10 uM by KINOMEscan analysis relative to control.
Assay [20] addresses Casein kinase I isoform gamma-3 (Homo sapiens) (UniProt Q9Y6M4). As to the kind of experiment: Inhibition of T7 bacteriophage fused human CSNK1G3 at 10 uM by KINOMEscan analysis relative to control; values are per cent of control.
The target in assay [21] is Non-receptor tyrosine-protein kinase TNK1 (Homo sapiens) (UniProt Q13470). Kind of assay: Inhibition of T7 bacteriophage fused human TNK1 at 10 uM by KINOMEscan analysis relative to control.
The target in assay [22] is Serine/threonine-protein kinase DCLK3 (Homo sapiens) (UniProt Q9C098). As to the kind of experiment: Inhibition of T7 bacteriophage fused human DCAMKL3 at 10 uM by KINOMEscan analysis relative to control; values are per cent of control.
Serine/threonine-protein kinase DCLK3 (Homo sapiens), sequence (Q9C098 whole entry, the tested form may be a part): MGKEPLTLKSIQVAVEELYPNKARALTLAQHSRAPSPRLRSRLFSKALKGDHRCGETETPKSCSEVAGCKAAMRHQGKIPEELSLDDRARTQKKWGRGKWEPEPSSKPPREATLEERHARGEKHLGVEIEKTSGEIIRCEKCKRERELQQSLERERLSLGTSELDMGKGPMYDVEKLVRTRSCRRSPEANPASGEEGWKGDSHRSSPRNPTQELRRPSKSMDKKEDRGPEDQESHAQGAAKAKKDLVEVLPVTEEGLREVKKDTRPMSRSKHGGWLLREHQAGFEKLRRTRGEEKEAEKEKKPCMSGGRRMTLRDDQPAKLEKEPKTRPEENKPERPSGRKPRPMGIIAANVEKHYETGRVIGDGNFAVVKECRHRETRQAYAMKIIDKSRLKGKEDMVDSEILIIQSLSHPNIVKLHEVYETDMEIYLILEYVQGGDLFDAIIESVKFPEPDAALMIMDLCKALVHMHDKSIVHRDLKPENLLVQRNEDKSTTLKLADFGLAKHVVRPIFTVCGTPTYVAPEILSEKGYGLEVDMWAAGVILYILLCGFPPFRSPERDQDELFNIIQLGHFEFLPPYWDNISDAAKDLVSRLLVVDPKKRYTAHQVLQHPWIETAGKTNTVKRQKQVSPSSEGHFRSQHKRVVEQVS
Assay [23] deals with Myosin-IIIb (Homo sapiens) (UniProt Q8WXR4). Kind of assay: Inhibition of T7 bacteriophage fused human MYO3B at 10 uM by KINOMEscan analysis relative to control.
Assay [24] concerns the target Serine/threonine-protein kinase DCLK2 (Homo sapiens) (UniProt Q8N568). Kind of assay: Inhibition of T7 bacteriophage fused human DCAMKL2 at 10 uM by KINOMEscan analysis relative to control.
Assay [25] deals with Tyrosine-protein kinase JAK2 (Homo sapiens) (UniProt O60674). As to the kind of experiment: Inhibition of T7 bacteriophage fused human JAK2 JH1catalytic domain at 10 uM by KINOMEscan analysis relative to control; values are per cent of control.
Assay [26] concerns the target Tyrosine-protein kinase Fer (Homo sapiens) (UniProt P16591). As to the kind of experiment: Inhibition of T7 bacteriophage fused human FER at 10 uM by KINOMEscan analysis relative to control; values are per cent of control.
Assay [27] concerns the target Leucine-rich repeat serine/threonine-protein kinase 2 (Homo sapiens) (UniProt Q5S007). Kind of assay: Inhibition of LRRK2 phosphorylation at Ser935 residue in EBV immortalized human derived lymphoblastoid cells at 0.01 to 3 uM incubated for 90 mins by immunoblot analysis. The note with it: Lymphoblastoid cell, dose 0.01-3 µM. In kind it is cell-based. In general terms: In western blotting, separated proteins are transferred to a membrane and probed.

Death-associated protein kinase 2 (Homo sapiens), sequence (Q9UIK4 whole entry, looked up, the tested form may be a part): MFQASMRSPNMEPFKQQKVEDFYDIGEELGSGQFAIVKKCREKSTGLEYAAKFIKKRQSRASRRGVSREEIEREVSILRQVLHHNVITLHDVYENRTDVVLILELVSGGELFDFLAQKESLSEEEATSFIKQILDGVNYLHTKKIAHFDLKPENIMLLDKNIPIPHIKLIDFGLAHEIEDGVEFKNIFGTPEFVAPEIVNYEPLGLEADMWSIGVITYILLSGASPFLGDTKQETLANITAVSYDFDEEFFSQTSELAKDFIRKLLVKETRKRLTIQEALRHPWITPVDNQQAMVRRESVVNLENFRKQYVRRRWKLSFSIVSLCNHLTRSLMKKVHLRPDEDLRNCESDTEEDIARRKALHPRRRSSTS
Receptor-interacting serine/threonine-protein kinase 2 (Homo sapiens), sequence (O43353 whole entry, the tested form may be a part): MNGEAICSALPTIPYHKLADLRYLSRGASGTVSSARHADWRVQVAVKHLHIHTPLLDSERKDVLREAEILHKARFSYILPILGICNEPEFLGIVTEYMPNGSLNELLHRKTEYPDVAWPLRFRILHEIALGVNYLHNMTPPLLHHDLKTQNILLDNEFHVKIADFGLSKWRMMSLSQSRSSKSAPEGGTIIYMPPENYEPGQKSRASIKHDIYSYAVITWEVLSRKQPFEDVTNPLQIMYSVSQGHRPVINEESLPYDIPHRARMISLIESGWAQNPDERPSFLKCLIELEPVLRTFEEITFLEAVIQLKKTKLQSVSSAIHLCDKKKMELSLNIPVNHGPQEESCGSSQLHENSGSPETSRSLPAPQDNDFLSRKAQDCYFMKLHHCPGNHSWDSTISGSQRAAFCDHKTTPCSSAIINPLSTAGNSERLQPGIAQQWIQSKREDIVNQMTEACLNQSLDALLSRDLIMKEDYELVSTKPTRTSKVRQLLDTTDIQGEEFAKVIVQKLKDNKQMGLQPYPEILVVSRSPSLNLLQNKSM

Usually inhibition stands for the change of the read-out against control, counted positive when it falls. By residual activity is commonly meant the activity still measured, relative to the control. Low readings indicate little activity left, high ones much activity left. Turning to `COc1cc(N2CCC(N3CCN(C)CC3)CC2)ccc1Nc1ncc2c(n1)N(C)c1ccccc1C(=O)N2C`, the inhibition in [1] was found to be 10%; in assay [2], 92%; in [4], 81%; in [5], 100%; in assay [6], 100%; in [7] it was 100%. The inhibition in [8] came out at 100%; in [10], 100%; in assay [11] it was 100%; in assay [12] it was 89%; in assay [13], 100%; in assay [14] it was 100%. Moreover, the inhibition in assay [15] came to 100%; in assay [17] it was 100%; in [19] it was 100%; in assay [21], 2.8%; in [23] it was 83%; in assay [24], 0.45%. Also, the residual activity in assay [3] was determined as 0%; in assay [9] it was 90%; in [16], 96%; in assay [18], 67%; in assay [20], 93%; in [22], 90%. Moreover, the values for the residual activity in assay [25] and in assay [26] were 70% and 51%, respectively.

As to `CCOc1cc(C(=O)N2CCC(N3CCN(C)CC3)CC2)ccc1Nc1ncc2c(n1)N(C1CCCC1)c1ccccc1C(=O)N2C`, the inhibition result in assay [27] is “inactive”.

The record behind these values is ChEMBL document CHEMBL5678810.
